From US8058258B2, “Methods for cancer therapy and stem cell modulation” (Agency for Science, Technology and Research, priority 2006, dated 2011)

Key:
[1] = explored for antiviral treatment; cited from earlier work
[2] = tested on: BT-549 cells; experiment: Apoptotic response time course by FACS analysis; format: cell-based; conditions: BT-549, 5 μM, time course to 120 hours
Procedure: (§1) FIG. 6A depicts an analysis of the breast cancer cell lines MCF-7, MB-468, SK-BR-3, MB-231, T47D and BT549 for an apoptotic effect of 5 μM 3-deazaneplanocin over a time frame of 120 hours. Cell death was measured by FACS analysis. Data presented are the average of three independent experiments.
(§2) Cells were trypsinised and washed with PBS and fixed in 70% ethanol and processed for propidium iodide staining and FACS analysis. For the caspase 3 activity assay and mitochondrial membrane potential detection, cells were stained with anti-active caspase 3 and JC-1, respectively, according to the manufacturer's instructions (BD Bioscience).
(§3) To extend the observation seen in MCF-7 cells, additional breast cancer cell lines were screened, including MB-468, SK-BR-3, MB-231, T47D and BT549. […] To identify the PRC2 target genes associated with the cellular sensitivity to 3-deazaneplanocin, the array analysis was performed in these breast cancer cell lines before and after 3-deazaneplanocin treatment and the expression of the 47 identified PRC2 targets profiled. It was reasoned that some the PRC2 target genes might be differentially expressed between the sensitive and resistant cell lines, which might confer the distinct sensitivity to 3-deazaneplanocin. […] Both the real time and conventional RT-PCR analysis of the 4 gene set confirmed the array data (FIGS. 6D & 6E). […]

[3] = tested on: MB-231 cells; experiment: Apoptotic response time course by FACS analysis; format: cell-based; conditions: MB-231, 5 μM, time course to 120 hours
Procedure: as §1, §2, §3

[4] = tested on: caspase 3 in HCT116 cells; experiment: Caspase 3 activity by flow cytometry; format: cell-based
From the text: as §2, with “FIG. 3D depicts the detection of activation the protease caspase 3 potential in HCT116 cells by 3-deazaneplanocin (DZNep, right hand side), which occurs during apoptosis. Cells” for “Cells”

[5] = tested on: caspase 9, and poly(ADP-ribose) polymerase (PARP); experiment: Western blot of caspase and PARP cleavage; format: cell-based; conditions: 3-deazaneplanocin-treated cells (MCF-7, HCT116; 5 μM, 48 and 72 h)
Procedure: FIG. 3E depicts a Western blot analysis of the activation of caspases. MCF-7 and HCT16 cells were treated with 5 μM 3-deazaneplanocin (“DZNep”) for 48 and 72 h before analysis of whole-cell extracts. Activation of caspases and poly(ADP-ribose) polymerase (“PARP”) was detected after 3-deazaneplanocin treatment. β-Actin (“Actin”) was used as a loading control.
Cell pellets were first lysed in RadioImmuno Precipitation Assay (RIPA) buffer, consisting of an aqueous solution of 25 mM Tris-HCl pH 7.6, 150 mM NaCl, 1% Nonidet-P 40 (NP-40), 1% sodium deoxycholate and 0.1% sodium dodecylsulfate (SDS), before further sonicated using a tissue homogeniser to release all the proteins. Equal amounts of protein were separated on SDS-polyacrylamide gels and transferred to polyvinylidene difluoride (PVDF) membranes. The blots were probed with antibodies against: EED (07-368), SUZ12 (07-379), SUV39H1 (07-550), BMI1 (05-637), tri-methylated H3-K27 (07-449), tri-methylated H3-K9 (07-442) and Acetyl-Histone H3 (06-599), and were purchased from Upstate. EZH2 (AC22) and Histone H3 (3H1) were from Cell Signaling. Antibodies against DNA methyl-transferases DNMT1 and DNMT3B were purchased from Alexis Biochemicals. […]

[6] = tested on: MCF-7 cells; experiment: Microarray gene expression analysis (Illumina BeadChip) in MCF-7 cells; format: cell-based, human
Procedure: Cells were maintained in DMEM supplemented with 10% fetal bovine serum with glutamine, penicillin, and streptomycin. For drug treatment, cells were seeded the day before the drug treatment. Cells were treated with 5 μM 3-Deazaneplanocin A or 2 μM 5-aza-2′-deoxycytidine (5-AzaC; Sigma) for 72 hours and trichostatin A (TSA; Sigma) at 100 nM for 24 hours. For co-treatment of cells with 5-AzaC and TSA, 5-Aza was added for 48 hours and followed by TSA for 24 hours.
The Smartpool siRNA duplexes of selected PRC2 targets and the non-targeting control were purchased from Dharmacon (Lafayett, Colo.). […] Cells were transfected with 50 nM final concentration of siRNA duplexes using Lipofectamine 2000 (Invitrogen) following the manufacturer's instructions.
Total RNA was isolated from cell lines using Trizol (Invitrogen) and was converted to cDNA using an RNA Amplification kit (Ambion). The microarray hybridisation was performed using the Illumina Gene Expression BeadChip (Illumina) and data analysis was performed using GeneSpring software from Agilent Technologies.
The effects on gene expression were analysed using an Illumina Gene Expression BeadChip. […] To be inclusive for the subsequent analysis, all 1402 genes were considered to be potential PRC2 target genes.
To identify the PRC2 targets specifically repressed in breast cancer cells, the expression profiles of the 140 putative PRC2 target genes in MCF-7 cells and MCF10A cells were compared by gene clustering analysis (FIG. 4C).

Q: For `Nc1nccc2c1ncn2C1C=C(CO)C(O)C1O` (stereo not shown) [3-deazaneplanocin, 5-(4-amino-1H-imidazo[4,5-c]pyridin-1-yl)-3-(hydroxymethyl)-3-cyclopentene-1,2-diol], which toxicity in vivo [1] is on record?
A: minimal toxicity

Q: And the “sensitivity to 3-deazaneplanocin-induced cell death” value [2]?
A: highly resistant

Q: And the “sensitivity to 3-deazaneplanocin-induced cell death” value [3]?
A: highly resistant

Q: And the “activation of the protease caspase 3” value [4]?
A: activation

Q: What about the “cleavage of caspase 9, and poly(ADP-ribose) polymerase (PARP)” value [5] of the same molecule?
A: easily detectable

Q: What about the “expression of the 47 PRC2 target genes repressed in MCF-7 relative to MCF10A” value [6] of the same molecule?
A: re-expression

Q: And the “number of genes upregulated ≧2-fold” value ([6]; 72 h)?
A: 750 genes
